Experimental data taken from PubChem BioAssay AID248 (DTP/NCI, 2004).
Values joined by “and” are separate entries in the source; they are usually repeats but may differ in a detail not shown here. Equal values may be shown once. Toxic doses and inconclusive results are not listed. Cut-off read from the data, not from the text of the source: active = T/C of 150% or more; inactive = T/C below 125%.

Tested on: L1210 leukemia ip in BDF1 mice, survival T/C
Assay: NCI In Vivo Anticancer Drug Screen. Data for tumor model L1210 Leukemia (intraperitoneal) in B6D2F1 (BDF1) mice
Settings: endpoint: mean survival time, higher = longer survival
How it was run: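 Tumor cells were implanted, animals were treated, and survival was followed. The result divides the treated measurement by the vehicle-control measurement.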

[1] = dose: 100.0 mg/kg/injection, schedule: Q01DX009 (ip), vehicle: saline with Tween-80
[2] = dose: 200.0 mg/kg/injection, schedule: Q01DX009 (ip), vehicle: saline with Tween-80
[3] = dose: 400.0 mg/kg/injection, schedule: Q01DX009 (ip), vehicle: saline with Tween-80
[4] = dose: 100.0 mg/kg/injection, schedule: Q01DX001 (ip), vehicle: carboxymethylcellulose (CMC)
[5] = dose: 100.0 mg/kg/injection, schedule: Q04DX002 (ip), vehicle: saline with Tween-80
[6] = dose: 200.0 mg/kg/injection, schedule: Q04DX002 (ip), vehicle: saline with Tween-80
[7] = dose: 100.0 mg/kg/injection, schedule: Q04DX003 (ip), vehicle: saline with Tween-80
[8] = dose: 200.0 mg/kg/injection, schedule: Q04DX003 (ip), vehicle: saline with Tween-80
[9] = dose: 400.0 mg/kg/injection, schedule: Q04DX003 (ip), vehicle: saline with Tween-80
[10] = dose: 100.0 mg/kg/injection, schedule: Q01DX009 (ip), vehicle: Klucel (hydroxypropylcellulose) (HPC)
[11] = dose: 100.0 mg/kg/injection, schedule: Q04DX003 (ip), vehicle: Klucel (hydroxypropylcellulose) (HPC)
[12] = dose: 200.0 mg/kg/injection, schedule: Q04DX003 (ip), vehicle: Klucel (hydroxypropylcellulose) (HPC)
[13] = dose: 400.0 mg/kg/injection, schedule: Q01DX009 (ip), vehicle: Klucel (hydroxypropylcellulose) (HPC)
[14] = dose: 400.0 mg/kg/injection, schedule: Q04DX003 (ip), vehicle: Klucel (hydroxypropylcellulose) (HPC)

Measured: T/C

O=c1oc(/C=C/c2ccccc2)nc2cc(Cl)ccc12
inactive: [1] 103 % of control | [2] 101 % of control | [3] 96 % of control

O=C(O)c1c(O)c2cc([N+](=O)[O-])ccc2oc1=O
inactive: [4] 89 % of control | [5] 95 % of control and 111 % of control | dose: 200.0 mg/kg/injection, schedule: Q01DX001 (ip), vehicle: carboxymethylcellulose (CMC) 103 % of control | [6] 114 % of control | dose: 400.0 mg/kg/injection, schedule: Q01DX001 (ip), vehicle: carboxymethylcellulose (CMC) 100 % of control | dose: 400.0 mg/kg/injection, schedule: Q04DX002 (ip), vehicle: saline with Tween-80 115 % of control

CC(=O)Nc1nc(SCc2ccccc2)c2c(no[n+]2[O-])n1
inactive: [5] 97 % of control | [6] 116 % of control

CC(=O)Oc1cc2ccccc2cc1C(C)C
inactive: [1] 98 % of control | [7] 103 % of control | [2] 98 % of control | [8] 95 % of control | [3] 88 % of control | [9] 90 % of control

[C-]#[N+]CCCCCC
inactive: dose: 3.12 mg/kg/injection, schedule: Q04DX003 (sc), vehicle: olive oil, sesame oil, peanut oil 101 % of control | dose: 4.21 mg/kg/injection, schedule: Q01DX009 (ip), vehicle: olive oil, sesame oil, peanut oil 92 % of control | dose: 6.25 mg/kg/injection, schedule: Q04DX003 (sc), vehicle: olive oil, sesame oil, peanut oil 93 % of control | dose: 8.43 mg/kg/injection, schedule: Q01DX009 (sc), vehicle: olive oil, sesame oil, peanut oil 112 % of control | dose: 12.5 mg/kg/injection, schedule: Q04DX003 (sc), vehicle: olive oil, sesame oil, peanut oil 88 % of control | dose: 16.87 mg/kg/injection, schedule: Q01DX009 (sc), vehicle: olive oil, sesame oil, peanut oil 112 % of control | dose: 18.0 mg/kg/injection, schedule: Q04DX003 (sc), vehicle: other 104 % of control | dose: 28.0 mg/kg/injection, schedule: Q04DX003 (sc), vehicle: other 101 % of control | dose: 40.0 mg/kg/injection, schedule: Q04DX003 (sc), vehicle: other 108 % of control | dose: 60.0 mg/kg/injection, schedule: Q04DX003 (sc), vehicle: olive oil, sesame oil, peanut oil 111 % of control | dose: 90.0 mg/kg/injection, schedule: Q04DX003 (sc), vehicle: olive oil, sesame oil, peanut oil 100 % of control | dose: 135.0 mg/kg/injection, schedule: Q04DX003 (sc), vehicle: olive oil, sesame oil, peanut oil 109 % of control

CCCCOC(=O)CC(=O)OCCCC
inactive: [10] 96 % of control | [11] 88 % of control | [12] 95 % of control | [13] 86 % of control | [14] 97 % of control

COC(=O)C12C=CC(C1)n1c(=O)n(-c3ccccc3)c(=O)n12 (configuration not stated)
inactive: [7] 97 % of control | [8] 105 % of control | [9] 103 % of control

c1ccc(C/C(N=Nc2ccccc2)=N\Nc2ccccc2)cc1
inactive: dose: 50.0 mg/kg/injection, schedule: Q01DX009 (ip), vehicle: Klucel (hydroxypropylcellulose) (HPC) 92 % of control | [10] 92 % of control | dose: 200.0 mg/kg/injection, schedule: Q01DX009 (ip), vehicle: Klucel (hydroxypropylcellulose) (HPC) 91 % of control | [13] 105 % of control

CC(=O)Nc1ccc(OC(C)=O)cc1
inactive: [7] 106 % of control | [8] 106 % of control | [9] 116 % of control

C[N+](C)(C)C1CC2CC1C2 (configuration not stated)
inactive: dose: 75.0 mg/kg/injection, schedule: Q01DX001 (ip), vehicle: saline 97 % of control

Cc1ccc(S(=O)(=O)c2ccc(F)cc2)cc1
inactive: [7] 104 % of control | [8] 95 % of control | [9] 97 % of control

COC(=O)C1(CN(C)C)CCCC(CN(C)C)(C(=O)OC)C1=O (configuration not stated)
inactive: dose: 50.0 mg/kg/injection, schedule: Q01DX Z (ip), vehicle: carboxymethylcellulose (CMC) 100 % of control and 106 % of control | dose: 75.0 mg/kg/injection, schedule: Q01DX Z (ip), vehicle: carboxymethylcellulose (CMC) 106 % of control and 109 % of control | dose: 115.0 mg/kg/injection, schedule: Q01DX Z (ip), vehicle: carboxymethylcellulose (CMC) 113 % of control | dose: 160.0 mg/kg/injection, schedule: Q01DX Z (ip), vehicle: carboxymethylcellulose (CMC) 106 % of control and 113 % of control

O=C(Nc1ccc2ccccc2c1)C1CC1
inactive: dose: 100.0 mg/kg/injection, schedule: Q04DX002 (ip), vehicle: Klucel (hydroxypropylcellulose) (HPC) 100 % of control | dose: 200.0 mg/kg/injection, schedule: Q04DX002 (ip), vehicle: Klucel (hydroxypropylcellulose) (HPC) 107 % of control | dose: 400.0 mg/kg/injection, schedule: Q04DX002 (ip), vehicle: Klucel (hydroxypropylcellulose) (HPC) 115 % of control

Cc1cc(Br)c2ccccc2c1N(CC(=O)O)S(=O)(=O)c1ccccc1
inactive: dose: 100.0 mg/kg/injection, schedule: Q01DX001 (ip), vehicle: saline sonified 97 % of control | [1] 91 % of control | dose: 200.0 mg/kg/injection, schedule: Q01DX001 (ip), vehicle: saline sonified 100 % of control | [2] 91 % of control | dose: 400.0 mg/kg/injection, schedule: Q01DX001 (ip), vehicle: saline sonified 97 % of control | [3] 97 % of control

O=S(=O)(C1CC1c1ccccc1)N1CCOCC1 (configuration not stated)
inactive: dose: 100.0 mg/kg/injection, schedule: Q01DX001 (ip), vehicle: saline 101 % of control | dose: 200.0 mg/kg/injection, schedule: Q01DX001 (ip), vehicle: saline 106 % of control | dose: 400.0 mg/kg/injection, schedule: Q01DX001 (ip), vehicle: saline 95 % of control

Cc1ccc(NC(=O)C(Br)C(Br)C(=O)O)cc1Cl (configuration not stated)
inactive: [1] 107 % of control | [2] 97 % of control

Cc1cccc(C2C(=O)c3ccccc3C2=O)n1
inactive: [1] 88 % of control | [7] 95 % of control | [2] 89 % of control | [8] 99 % of control | [3] 91 % of control | [9] 88 % of control

S=C(N/N=C\c1ccccc1)N/N=C/c1ccccc1
inactive: dose: 100.0 mg/kg/injection, schedule: Q04DX002 (ip), vehicle: gum acacia 93 % of control | dose: 200.0 mg/kg/injection, schedule: Q04DX002 (ip), vehicle: gum acacia 96 % of control | dose: 400.0 mg/kg/injection, schedule: Q04DX002 (ip), vehicle: gum acacia 93 % of control

CC1(C)C2CC3C(C(=O)O)C(C(=O)O)CCC3(C2)C1OC=O (configuration not stated)
inactive: [11] 99 % of control | [12] 92 % of control | [14] 103 % of control

COc1ccc(-n2c(O)c(N=Nc3ccc(Br)cc3)c(=O)n(-c3ccccc3)c2=S)cc1
inactive: dose: 50.0 mg/kg/injection, schedule: Q01DX001 (ip), vehicle: Klucel (hydroxypropylcellulose) (HPC) 102 % of control | dose: 100.0 mg/kg/injection, schedule: Q01DX001 (ip), vehicle: Klucel (hydroxypropylcellulose) (HPC) 104 % of control | dose: 200.0 mg/kg/injection, schedule: Q01DX001 (ip), vehicle: Klucel (hydroxypropylcellulose) (HPC) 100 % of control

COc1ccc(CC2(C#N)c3ccccc3C=CN2C(=O)c2ccccc2)c([N+](=O)[O-])c1OC (configuration not stated)
inactive: dose: 50.0 mg/kg/injection, schedule: Q04DX002 (ip), vehicle: saline with Tween-80 97 % of control | [5] 87 % of control | [6] 97 % of control

COc1cc(N(CCCl)CCCl)c(OC)cc1/C=N\Nc1nncn1N
inactive: dose: 1.2 mg/kg/injection, schedule: Q01DX015 (ip), vehicle: carboxymethylcellulose (CMC) 109 % of control | dose: 1.4 mg/kg/injection, schedule: Q01DX015 (ip), vehicle: carboxymethylcellulose (CMC) 105 % of control | dose: 2.2 mg/kg/injection, schedule: Q01DX015 (ip), vehicle: carboxymethylcellulose (CMC) 107 % of control | dose: 2.5 mg/kg/injection, schedule: Q01DX015 (ip), vehicle: carboxymethylcellulose (CMC) 109 % of control | dose: 3.3 mg/kg/injection, schedule: Q01DX015 (ip), vehicle: carboxymethylcellulose (CMC) 110 % of control | dose: 15.0 mg/kg/injection, schedule: Q01DX015 (ip), vehicle: carboxymethylcellulose (CMC) 96 % of control and 103 % of control | dose: 33.0 mg/kg/injection, schedule: Q01DX001 (ip), vehicle: carboxymethylcellulose (CMC) 124 % of control | [4] 105 % of control
